{"source": "ChEMBL document CHEMBL5137099", "about": "“Discovery of Novel cccDNA Reducers toward the Cure of Hepatitis B Virus Infection” (J Med Chem, 2022)", "key": {"[1]": {"assay": "Permeability of the compound by PAMPA analysis", "format": "ADME", "settings": "read-out: permeability"}, "[2]": {"assay": "Elimination half life in C3H/J mouse at 5 mg/kg, po by LC-MS/MS analysis", "format": "ADME, organism-based", "settings": "in vivo, read-out: beta t1/2 (converted)"}, "[3]": {"assay": "AUC (0 to infinity) in C57BL/6 mouse at 2 mg/kg, iv by LC-MS/MS analysis", "format": "ADME, organism-based", "set-up": "time infinity, dose 2 mg/kg, route iv", "settings": "in vivo"}, "[4]": {"system": "Hepatitis B virus", "assay": "Antiviral activity against HBV infected in human HepDES19 cells assessed as reduction in HBV cccDNA production by measuring inhibition of HBeAg secretion incubated for 5 days by ELISA", "format": "functional, organism-based", "settings": "HepDES19, 120 h"}, "[5]": {"assay": "Elimination half life in C57BL/6 mouse at 30 mg/kg, po by LC-MS/MS analysis", "format": "ADME, organism-based", "settings": "in vivo, read-out: beta t1/2 (converted)"}, "[6]": {"assay": "Cmax in C57BL/6 mouse at 5 mg/kg, po by LC-MS/MS analysis", "format": "ADME, organism-based", "set-up": "dose 5 mg/kg, route po", "settings": "in vivo"}, "[7]": {"assay": "Dose normalized AUC (0 to 24 hrs) in C57BL/6 mouse at 30 mg/kg, po by LC-MS/MS analysis", "format": "ADME, organism-based", "settings": "in vivo"}, "[8]": {"assay": "AUC (0 to infinity) in C3H/J mouse at 5 mg/kg, po by LC-MS/MS analysis", "format": "ADME, organism-based", "set-up": "time infinity, dose 5 mg/kg, route po", "settings": "in vivo"}, "[9]": {"assay": "Elimination half life in C57BL/6 mouse at 2 mg/kg, iv by LC-MS/MS analysis", "format": "ADME, organism-based", "settings": "in vivo, read-out: beta t1/2 (converted)"}, "[10]": {"assay": "Octanol-aqueous buffer distribution coefficient, log D of the compound at pH 7.4 by CAMDIS assay", "format": "physicochemical"}, "[11]": {"assay": "Dose normalized AUC (0 to 24 hrs) in C57BL/6 mouse at 2 mg/kg, iv by LC-MS/MS analysis", "format": "ADME, organism-based", "settings": "in vivo"}, "[12]": {"assay": "Tmax in C57BL/6 mouse at 30 mg/kg, po by LC-MS/MS analysis", "format": "ADME, organism-based", "settings": "in vivo"}, "[13]": {"assay": "Volume of distribution at steady state in C57BL/6 mouse at 2 mg/kg, iv by LC-MS/MS analysis", "format": "ADME, organism-based", "settings": "in vivo, read-out: Vdss"}, "[14]": {"assay": "Cmax in C3H/J mouse plasma at 5 mg/kg, po by LC-MS/MS analysis", "format": "ADME, organism-based", "set-up": "dose 5 mg/kg, route po"}, "[15]": {"system": "Hepatitis B virus", "assay": "Antiviral activity against HBV infected in human primary hepatocyte cells assessed as reduction in HBV cccDNA production by measuring inhibition of HBsAg secretion measured after 48 hrs by ELISA", "format": "functional, organism-based"}, "[16]": {"assay": "Clearance in C57BL/6 mouse at 2 mg/kg, iv by LC-MS/MS analysis", "format": "ADME, organism-based", "settings": "in vivo"}, "[17]": {"assay": "Metabolic stability in mouse hepatocytes assessed as intrinsic clearance", "format": "ADME, cell-based, Hepatocyte", "settings": "read-out: CLH"}, "[18]": {"assay": "Dose normalized Cmax in C57BL/6 mouse at 5 mg/kg, po by LC-MS/MS analysis", "format": "ADME, organism-based", "settings": "in vivo"}, "[19]": {"assay": "Elimination half life in C57BL/6 mouse at 5 mg/kg, po by LC-MS/MS analysis", "format": "ADME, organism-based", "settings": "in vivo, read-out: beta t1/2 (converted)"}, "[20]": {"assay": "Metabolic stability in human microsomes assessed as clearance", "format": "ADME, Microsome", "settings": "read-out: CLH"}, "[21]": {"assay": "Dose normalized Cmax in C3H/J mouse at 5 mg/kg, po by LC-MS/MS analysis", "format": "ADME, organism-based", "settings": "in vivo"}, "[22]": {"assay": "Dose normalized AUC (0 to 24 hrs) in C3H/J mouse at 5 mg/kg, po by LC-MS/MS analysis", "format": "ADME, organism-based", "settings": "in vivo"}, "[23]": {"assay": "Oral bioavailability in C57BL/6 mouse at 5 mg/kg by LC-MS/MS analysis", "format": "ADME, organism-based", "settings": "in vivo"}, "[24]": {"assay": "Aqueous solubility of the compound", "format": "physicochemical", "settings": "buffer"}, "[25]": {"assay": "AUC (0 to infinity) in C57BL/6 mouse at 5 mg/kg, po by LC-MS/MS analysis", "format": "ADME, organism-based", "set-up": "time infinity, dose 5 mg/kg, route po", "settings": "in vivo"}, "[26]": {"assay": "Tmax in C57BL/6 mouse at 5 mg/kg, po by LC-MS/MS analysis", "format": "ADME, organism-based", "settings": "in vivo"}, "[27]": {"assay": "Dose normalized AUC (0 to 24 hrs) in C57BL/6 mouse at 5 mg/kg, po by LC-MS/MS analysis", "format": "ADME, organism-based", "settings": "in vivo"}, "[28]": {"assay": "AUC (0 to infinity) in C57BL/6 mouse at 30 mg/kg, po by LC-MS/MS analysis", "format": "ADME, organism-based", "set-up": "time infinity, dose 30 mg/kg, route po", "settings": "in vivo"}, "[29]": {"assay": "Tmax in C3H/J mouse plasma at 5 mg/kg, po by LC-MS/MS analysis", "format": "ADME, organism-based"}, "[30]": {"system": "Hepatitis B virus", "assay": "Antiviral activity against HBV infected in human HepG2 cells assessed as reduction in HBeAg secretion incubated for 5 days by counter screen assay", "format": "functional, organism-based", "settings": "HepG2, 120 h"}, "[31]": {"assay": "Cmax in C57BL/6 mouse at 30 mg/kg, po by LC-MS/MS analysis", "format": "ADME, organism-based", "set-up": "dose 30 mg/kg, route po", "settings": "in vivo"}}}
{"compound": "O=C(O)C1CCN(c2ccc3c(=O)c4cccc(Cl)c4oc3c2)C1", "note": "(racemic)", "values": [{"measurement": "Papp", "setting": "[1]", "result": 2.27, "unit": "×10⁻⁶ cm/s"}, {"measurement": "half-life", "setting": "[2]", "result": 1.11, "unit": "h"}, {"measurement": "AUC(0-inf)", "setting": "[3]", "result": 1900, "unit": "ng·h/mL"}, {"measurement": "IC50", "setting": "[4]", "result": 1740, "unit": "nM"}, {"measurement": "half-life", "setting": "[5]", "result": 4.26, "unit": "h"}, {"measurement": "Cmax", "setting": "[6]", "result": 1650, "unit": "ng/mL"}, {"measurement": "AUC/dose", "setting": "[7]", "result": 151, "unit": "ng·h/mL"}, {"measurement": "AUC(0-inf)", "setting": "[8]", "result": 761, "unit": "ng·h/mL"}, {"measurement": "half-life", "setting": "[9]", "result": 2.1, "unit": "h"}, {"measurement": "logD", "setting": "[10]", "result": 1.12}, {"measurement": "AUC/dose", "setting": "[11]", "result": "937 (ng·h/mL)/(mg/kg)"}, {"measurement": "Tmax", "setting": "[12]", "result": 0.5, "unit": "h"}, {"measurement": "Vd", "setting": "[13]", "result": 0.65, "unit": "L/kg"}, {"measurement": "Cmax", "setting": "[14]", "result": 580, "unit": "ng/mL"}, {"measurement": "IC50", "setting": "[15]", "result": 1340, "unit": "nM"}, {"measurement": "clearance", "setting": "[16]", "result": 17.6, "unit": "mL/min/kg"}, {"measurement": "CLint scaled", "setting": "[17]", "result": 32.3, "unit": "mL/min/kg"}, {"measurement": "Cmax/dose", "setting": "[18]", "result": 331, "unit": "ng/mL"}, {"measurement": "half-life", "setting": "[19]", "result": 10.2, "unit": "h"}, {"measurement": "CLint scaled", "setting": "[20]", "result": 6.2, "unit": "mL/min/kg"}, {"measurement": "Cmax/dose", "setting": "[21]", "result": 116, "unit": "ng/mL"}, {"measurement": "AUC/dose", "setting": "[22]", "result": "171 (ng·h/mL)/(mg/kg)"}, {"measurement": "bioavailability", "setting": "[23]", "result": 56, "unit": "%"}, {"measurement": "solubility", "setting": "[24]", "result": "< 435", "unit": "µg/mL"}, {"measurement": "AUC(0-inf)", "setting": "[25]", "result": 2680, "unit": "ng·h/mL"}, {"measurement": "Tmax", "setting": "[26]", "result": 0.5, "unit": "h"}, {"measurement": "AUC/dose", "setting": "[27]", "result": 500, "unit": "ng·h/mL"}, {"measurement": "AUC(0-inf)", "setting": "[28]", "result": 31400, "unit": "ng·h/mL"}, {"measurement": "Tmax", "setting": "[29]", "result": 0.5, "unit": "h"}, {"measurement": "IC50", "setting": "[30]", "result": "> 50000", "unit": "nM"}, {"measurement": "Cmax", "setting": "[31]", "result": 17300, "unit": "ng/mL"}]}
